From patent US4189499A, “Lysine 4-allyloxy-3-chlorophenylacetate and method of its preparation” (priority 1979, dated 1980)
Several values for one entry are separate records, joined by “and”; a condition that tells them apart may be missing. Identical values can stand only once. Entries after “also recorded” stand apart in the source; their conditions may differ. Like-named read-outs stand apart in the source and are kept apart here.

Tests used:
[1] = system: rabbit dorsal long muscle; test: Local tolerability after intramuscular injection, muscle removed at 24 hours, irritation by arbitrary scores; format: in vivo; design: scale not given here
Procedure: Such a tolerability was estimated after injection of equivalent solutions of the various preparations, effected in the rabbit dorsal long muscle, removing muscle 24 hours after injection and estimating the degree of induced irritation through arbitrary scores.

rat leg = test: Tolerability by volume increase of rat leg versus commercial injectable preparations; format: in vivo; conditions: FIG. 1
Excerpt: This type of preparation was estimated also in comparison with commercially available injectable preparations according to the method of volume increase of rat leg and results are shown in FIG. 1 of the drawings.

[2] = Pharmacokinetics after i.v. injection in rabbits; format: in vivo, rabbit; conditions: i.v. 90 mg/kg (as acid)
Procedure: (§1) The following pharmacological experimentation was carried out in order to estimate the comparative absorption and bioavailability through various administration routes in rabbits of Alclofenac acid and its lysine salt.

[3] = Pharmacokinetics from plasma levels after oral, rectal and intramuscular administration in rabbits; format: in vivo, rabbit
Procedure: as §1

[4] = Extent of availability after different routes, intravenous administration as reference; format: in vivo, rabbit
Procedure: as §1

Solubility = format: physicochemical; conditions: in words, solvent as stated
[5] = Analgesic, antipyretic and antiinflammatory activity; format: in vivo; conditions: versus the starting acid
[6] = General tolerability by route of administration; format: in vivo
[7] = Stability and hygroscopicity; format: physicochemical
pH of aqueous solution = format: physicochemical
[8] = 100 mg/ml (as acid), 0.5 ml injected
[9] = 131 mg/ml (as acid), 0.25 ml injected
[10] = individual, in order Rabbit I, II, III, IV, 90 mg/kg
[11] = INTRAMUSCOLAR 80 mg/kg, ± E.S.M.
[12] = P.OS 90 mg/kg, ± E.S.M., listed as Lysine Salt
[13] = P.OS 90 mg/kg, ± E.S.M., listed as Lysine Salt, 90 mg/kg
[14] = RECTAL 100 mg/kg, ± E.S.M., listed as Lysine Salt
[15] = RECTAL 100 mg/kg, ± E.S.M., listed as Lysine Salt, 100 mg/kg
[16] = rabbit, plasma, im, 80 mg/kg, INTRAMUSCOLAR 80 mg/kg, ± E.S.M.

C=CCOc1ccc(CC(=O)O)cc1Cl [Alclofenac-Lysine, lysine 4-allyloxy-3-chlorophenylacetate]
SCORES at 24 hours, Average [1, 8]: 2.3
SCORES at 24 hours, Average [1, 9]: 2.6
SCORES at 24 hours, individual [1, 8]: 2 (2×) and 3
SCORES at 24 hours, individual [1, 9]: 2 and 3 and 4 (2×) and 0
tolerability versus Mervan (rat leg): better more tolerated than a commercially available preparation
A ([2]; MEAN ± S.E.M. of 4 rabbits): 165.7 ± 16.6 µg/mL
B ([2]; MEAN ± S.E.M. of 4 rabbits): 293.5 ± 14.2 µg/mL
K12 ([2]; MEAN ± S.E.M. of 4 rabbits): 0.027 ± 0.003 min⁻¹
K21 ([2]; MEAN ± S.E.M. of 4 rabbits): 0.053 ± 0.009 min⁻¹
α ([2]; MEAN ± S.E.M. of 4 rabbits): 0.082 ± 0.011 min⁻¹
A [2, 10]: 170.51 µg/mL and 151.04 µg/mL and 209.59 µg/mL and 131.86 µg/mL
B [2, 10]: 269.19 µg/mL and 324.95 µg/mL and 269.89 µg/mL and 310.16 µg/mL
CL [2, 10]: 0.56 mL/min/kg and 0.63 mL/min/kg and 0.36 mL/min/kg and 0.74 mL/min/kg
K12 [2, 10]: 0.030 min⁻¹ and 0.034 min⁻¹ and 0.028 min⁻¹ and 0.018 min⁻¹
K21 [2, 10]: 0.051 min⁻¹ and 0.078 min⁻¹ and 0.038 min⁻¹ and 0.047 min⁻¹
Kel [2, 10]: 0.0033 min⁻¹ and 0.0019 min⁻¹ and 0.0036 min⁻¹
Vdβ [2, 10]: 0.274 L/kg and 0.329 L/kg and 0.285 L/kg
t1/2α [2, 10]: 6 min and 10.5 min (2×)
t1/2β [2, 10]: 6.8 h and 5.02 h and 10.5 h and 4.43 h
α [2, 10]: 0.083 min⁻¹ and 0.113 min⁻¹ and 0.067 min⁻¹ and 0.066 min⁻¹
β [2, 10]: 0.0017 min⁻¹ and 0.0023 min⁻¹ and 0.0011 min⁻¹ and 0.0026 min⁻¹
k el ([2]; rabbit, in vivo, iv, 90 mg/kg, MEAN ± S.E.M. of 4 rabbits, read-out: β (converted)): 3.17e-05 s⁻¹
clearance ([2]; rabbit, plasma, iv, 90 mg/kg, MEAN ± S.E.M. of 4 rabbits): 0.57 ± 0.08 mL/min/kg
k el ([2]; rabbit, plasma, iv, 90 mg/kg, MEAN ± S.E.M. of 4 rabbits, read-out: Kel (converted)): 4.83e-05 s⁻¹
Vd ([2]; rabbit, plasma, iv, 90 mg/kg, MEAN ± S.E.M. of 4 rabbits, read-out: Vdβ): 0.304 ± 0.015 L/kg
half-life ([2]; rabbit, plasma, iv, 90 mg/kg, MEAN ± S.E.M. of 4 rabbits, read-out: t1/2α): 0.15 ± 0.0167 h
half-life ([2]; rabbit, plasma, iv, 90 mg/kg, MEAN ± S.E.M. of 4 rabbits, read-out: t1/2β): 6.68 ± 1.35 h
Vd ([2]; rabbit, plasma, iv, 90 mg/kg, MEAN ± S.E.M. of 4 rabbits, read-out: √1): 0.196 ± 0.005 L/kg
Vd ([2]; rabbit, plasma, iv, 90 mg/kg, MEAN ± S.E.M. of 4 rabbits, read-out: √2): 0.392 ± 0.06 L/kg
k el ([2]; rabbit, plasma, iv, 90 mg/kg, individual, in order Rabbit I, II, III, IV, read-out: Kel (converted)): 4.5e-05 s⁻¹
Vd ([2]; rabbit, plasma, iv, 90 mg/kg, individual, in order Rabbit I, II, III, IV, read-out: Vdβ): 0.33 L/kg
half-life ([2]; rabbit, plasma, iv, 90 mg/kg, individual, in order Rabbit I, II, III, IV, read-out: t1/2α): 0.142 h
Vd ([2]; rabbit, plasma, iv, 90 mg/kg, individual, in order Rabbit I, II, III, IV, read-out: √1): 0.205 L/kg
Ka [3, 11]: 0.0131 ± 0.0031 min⁻¹
t1/2α [3, 11]: 1 ± 0.183 h
Ka [3, 12]: 0.0174 ± 0.0047 min⁻¹
t1/2α [3, 12]: 0.616667 ± 0.13333 h
Cmax [3, 13]: 454.5 ± 152.2 µg/mL
Kel [3, 13]: 0.0023 ± 0.0005 min⁻¹
Tmax [3, 13]: 2.18 ± 0.467 h
Vdβ [3, 13]: 0.301 ± 0.050 L/kg
t1/2β [3, 13]: 6.28 ± 1.53 h
Ka [3, 14]: 0.132 ± 0.032 min⁻¹
t1/2α [3, 14]: 0.13 ± 0.05 h
CL [3, 15]: 0.55 ± 0.03 mL/kg
Cmax [3, 15]: 473.7 ± 24.1 µg/mL
Kel [3, 15]: 0.0026 ± 0.0004 min⁻¹
Tmax [3, 15]: 0.65 ± 0.183 h
Vdβ [3, 15]: 0.248 ± 0.072 L/kg
t1/2β [3, 15]: 4.47 ± 1.18 h
intramuscular absorption velocity, in words ([3]; intramuscular, versus per os): may be compared with that per os
intramuscular blood levels, in words ([3]; intramuscular, versus per os): instantaneous and sustained blood levels are lower
absorption velocity ([3]; oral and rectal route): higher absorption velocity even through the oral and rectal route
absorption, in words ([3]; oral and rectal route, rabbits, listed as Lysine Salt): absorbed faster and to a higher extent in comparison with the acidic substance
CL/F [3, 16]: 0.67 ± 0.06 mL/min/kg
k el [3, 16]: 1.17e-05 s⁻¹
Cmax ([3]; rabbit, plasma, im, 80 mg/kg, INTRAMUSCOLAR 80 mg/kg, ± E.S.M., read-out: Cmax): 144 ± 30 µg/mL
Vd/F ([3]; rabbit, plasma, im, 80 mg/kg, INTRAMUSCOLAR 80 mg/kg, ± E.S.M., read-out: Vdβ): 0.607 ± 0.09 L/kg
half-life ([3]; rabbit, plasma, im, 80 mg/kg, INTRAMUSCOLAR 80 mg/kg, ± E.S.M., read-out: t1/2β): 23.4 ± 6.3 h
Tmax ([3]; rabbit, plasma, im, 80 mg/kg, INTRAMUSCOLAR 80 mg/kg, ± E.S.M., read-out: tmax (converted)): 4.62 h
% Availability (AUC o → 2h) ([4]; I.V. 90 mg/kg, 0-2 h, reference): 100%
% Availability (AUC o → 4h) ([4]; I.V. 90 mg/kg, 0-4 h, reference): 100%
% Availability (practical AUC) ([4]; I.V. 90 mg/kg, reference): 100%
% Availability (theoretical AUC) ([4]; I.V. 90 mg/kg, reference): 100%
bioavailability at 2 h ([4]; rabbit, plasma, 100 mg/kg, Rectal 100 mg/kg, 0-2 h, i.v. as reference, read-out: % Availability (AUC o → 2h)): 95.7%
bioavailability ([4]; rabbit, plasma, 100 mg/kg, Rectal 100 mg/kg, i.v. as reference, read-out: % Availability (practical AUC)): 100%
bioavailability ([4]; rabbit, plasma, 100 mg/kg, Rectal 100 mg/kg, i.v. as reference, read-out: % Availability (theoretical AUC)): 89.2%
bioavailability ([4]; rabbit, plasma, im, 80 mg/kg, I.M. 80 mg/kg, i.v. as reference, read-out: % Availability (practical AUC)): 95.4%
bioavailability ([4]; rabbit, plasma, im, 80 mg/kg, I.M. 80 mg/kg, i.v. as reference, read-out: % Availability (theoretical AUC)): 155%
bioavailability at 4 h ([4]; rabbit, plasma, po, 90 mg/kg, P.O. 90 mg/kg, 0-4 h, i.v. as reference, read-out: % Availability (AUC o → 4h)): 58.1%
bioavailability ([4]; rabbit, plasma, po, 90 mg/kg, P.O. 90 mg/kg, i.v. as reference, read-out: % Availability (practical AUC)): 88.5%
bioavailability ([4]; rabbit, plasma, po, 90 mg/kg, P.O. 90 mg/kg, i.v. as reference, read-out: % Availability (theoretical AUC)): 82.7%
Solubility (Solubility): soluble in biological fluids; also recorded: extremely soluble in water and alcohols; also recorded: insoluble in acetone
Solubility (Solubility; listed as compound (1)): very soluble in water and alcohols; also recorded: insoluble in acetone
analgesic, antipyretic and antiinflammatory properties [5]: equal or even superior to those of the starting acid
tolerability on injection ([6]; intravenous or intramuscular): well tolerated after either intravenous or intramuscular administration
tolerability per os ([6]; oral): better tolerated per os; also recorded: better tolerance
Stability of the solution ([7]; in words, listed as compound (1)): perfectly stable
Hygroscopicity ([7]; isolated solid): non-hygroscopic
pH value of the 10% aqueous solution (pH of aqueous solution; 10% aqueous solution): 7.7
pH of 25% parts/volume aqueous solution (pH of aqueous solution; 25% parts/volume, specification): 7.4-7.8
